Patent US20250235450A1, “COMBINATION THERAPIES COMPRISING APREMILAST AND TYK2 INHIBITORS” (Celgene Corporation, priority 2019, published 2025)
Entries after “also recorded” stand apart in the source; their conditions may differ.

Columns and labels:
LPS stimulated PBMCs = assay: Cytokine production in LPS stimulated PBMCs; type: cell-based, human; set-up: key to IL-2 / IFNα2 / IFSNβ / IL-4 / IL-5 / IL-6 / IL-10 / IL-13 / IL-15 / IL-17 / IL-22 / IL-1β / IL-1ra / IL-23 / IL-12p40 / IL-12p70 / TNF-α / IFNγ / MCP-1 / GM-CSF / G-CSF: ↑: Induced; —: No change; ↓: Reduced; settings: for effect on IFN-γ production / effect on IL-12p40 production / effect on IL-12p70 production / effect on IL-23 production / effect on MCP-1 production / effect on TNF-α production: vs DMSO control
Description: Peripheral blood mononuclear cells (PBMCs) isolation: Whole blood was received through the Celgene Donor program after informed consent and donor deidentification. All volunteers were healthy and were not on any medications for at least 72 hours prior to the blood draw. Blood was collected in Sodium Heparin tubes and were used within 2 hours of the blood draw for PBMCs isolation. Before PBMCs isolation, whole blood was diluted 1:1 with PBS solution containing 2% FBS (2% FBS-PBS). 13 ml of Ficoll-Paque solution was loaded in the SepMate® tube and 25 ml of diluted blood was loaded on top of the Ficoll-Paque. Centrifugation at 1200 g for 15 minutes with the brake on for cell separation, after which isolated PBMCs were transferred into a new tube. PBMCs were washed with 2% FBS-PBS and centrifuged at 800 g 10 minutes. Pellets were resuspended in 2% FBS-PBS and filtered through a 40 μm cell strainer to obtain single-cell suspension. 3 ml of RBC lysis buffer were used to eliminate red blood cells in the isolated population. Isolated PBMCs were washed with 2% FBS-PBS and were resuspended in RPMI growth medium containing 10% FBS and antibiotics.
For Example 6-11, PBMCs from 9 healthy donors were isolated and LPS-stimulated ex-vivo for IL-23, IL-12p40, IL-12p70, TNF-α, IFN-γ and MCP-1 cytokine analysis. PBMCs were plated in 96 well plate at a density of 200,000 cells per well in 200 μl of RPMI growth medium containing 10% FBS followed by treatment with DMSO and compounds. Each well received the same amount of DMSO, which is 0.3% v/v as final concentration. Series dilutions of compound treatment was performed according to Table 4 shown below. After two hours of compound treatment, LPS 100 ng/ml as final concentration was used as the stimulator. PBMCs were then incubated in a 37° C./5% CO2 incubator for 16 hours.
After 16 hours incubation, supernatants were collected into new 96-well polypropylene plates and centrifuged at 4000 rpm for 10 minutes to get rid of cell debris. Cytokine production was measured by Luminex Bio-Plex Multiplex Immunoassay (Bio-Rad) according to the manufacturer's procedures. To ensure that supernatant level was within the range of the standard cytokine for the assay, samples were diluted 5 fold for IL-12p40 and 27-plex assays, and used neat for IL-23 assay.
Data processing for PBMCs assays was done using Bio-plex manager, and raw data was exported to Excel template for the cytokine analysis. Data was plotted using GraphPad Prism 7.0 (GraphPad Software, Inc., La Jolla, CA) and expressed as % of DMSO control. Statistical analysis was performed using One Way ANOVA and Tukey's multiple comparisons test.
To evaluate the combinatory effect of apremilast and BMS-986165, data from the two independent treatments were analyzed by comparing the combinatory response against the theoretical additive response of the two agents. The expected additive effect of two agents (A and B) was calculated using the fractional product method: (fu)A,B=(fu)A×(fu)B; where fu=fraction unaffected by treatment.

[1] = tested on: moderate to severe plaque psoriasis; settings: cited from earlier work

Row | Structure (SMILES) | G-CSF (LPS stimulated PBMCs; LPS stimulated PBMCs) | GM-CSF (LPS stimulated PBMCs; LPS stimulated PBMCs) | IFNα2 (LPS stimulated PBMCs; LPS stimulated PBMCs) | IFNγ (LPS stimulated PBMCs; LPS stimulated PBMCs) | IFSNβ (LPS stimulated PBMCs; LPS stimulated PBMCs) | IL-1ra (LPS stimulated PBMCs; LPS stimulated PBMCs) | IL-1β (LPS stimulated PBMCs; LPS stimulated PBMCs) | IL-2 (LPS stimulated PBMCs; LPS stimulated PBMCs) | IL-4 (LPS stimulated PBMCs; LPS stimulated PBMCs) | IL-5 (LPS stimulated PBMCs; LPS stimulated PBMCs) | IL-6 (LPS stimulated PBMCs; LPS stimulated PBMCs) | IL-10 (LPS stimulated PBMCs; LPS stimulated PBMCs) | IL-12p40 (LPS stimulated PBMCs; LPS stimulated PBMCs) | IL-12p70 (LPS stimulated PBMCs; LPS stimulated PBMCs) | IL-13 (LPS stimulated PBMCs; LPS stimulated PBMCs) | IL-15 (LPS stimulated PBMCs; LPS stimulated PBMCs) | IL-17 (LPS stimulated PBMCs; LPS stimulated PBMCs) | IL-22 (LPS stimulated PBMCs; LPS stimulated PBMCs) | IL-23 (LPS stimulated PBMCs; LPS stimulated PBMCs) | MCP-1 (LPS stimulated PBMCs; LPS stimulated PBMCs) | other results
1 | CCOc1cc([C@@H](CS(C)(=O)=O)N2C(=O)c3cccc(NC(C)=O)c3C2=O)ccc1OC [Apremilast, N-[2-[(1S)-1-(3-ethoxy-4-methoxyphenyl)-2-(methylsulfonyl)ethyl]-2,3-dihydro-1,3-dioxo-1H-isoindol-4-yl]acetamide] | ↑ | ↓ | — | ↓ | — | — | — | ↓ | — | — | — | ↑ | ↓ | ↓ | — | — | — | — | ↓ | ↓ | TNF-α (LPS stimulated PBMCs; LPS stimulated PBMCs): ↓; effect on IL-12 (LPS stimulated PBMCs; LPS stimulated PBMCs): inhibited; effect on IFN-γ production (LPS stimulated PBMCs; LPS stimulated PBMCs): decreased; also recorded: reduced; effect on IL-12p40 production (LPS stimulated PBMCs; LPS stimulated PBMCs): decreased; effect on IL-12p70 production (LPS stimulated PBMCs; LPS stimulated PBMCs): decreased; effect on IL-23 production (LPS stimulated PBMCs; LPS stimulated PBMCs): decreased; also recorded: inhibited; effect on MCP-1 production (LPS stimulated PBMCs; LPS stimulated PBMCs): decreased; also recorded: reduced; effect on TNF-α production (LPS stimulated PBMCs; LPS stimulated PBMCs): decreased; also recorded: inhibited; reduction in plaque psoriasis ([1]; achievable in some patients, just over 4 months of treatment): 75%
2 | [2H]C([2H])([2H])NC(=O)c1nnc(NC(=O)C2CC2)cc1Nc1cccc(-c2ncn(C)n2)c1OC [BMS-986165, 6-(cyclopropanecarboxamido)-4-((2-methoxy-3-(1-methyl-1H-1,2,4-triazol-3-yl)phenyl)amino)-N-(methyl-d3)pyridazine-3-carboxamide] | ↑ | ↑ | — | ↓ | — | ↓ | — | — | — | — | — | — | ↑ | ↑ | ↑ | — | — | — | ↑↑ | ↓ | increase of IL-23 compared to DMSO group (LPS stimulated PBMCs; 0.2 μM-2 μM BMS-986165): 20 fold; TNF-α (LPS stimulated PBMCs; LPS stimulated PBMCs): ↑; effect on IL-12 (LPS stimulated PBMCs; LPS stimulated PBMCs): increased; increase of TNF-α (LPS stimulated PBMCs; LPS stimulated PBMCs, BMS-986165 alone): 1.2-1.5 fold; effect on IFN-γ production (LPS stimulated PBMCs; LPS stimulated PBMCs): decreased; also recorded: reduced; effect on IL-12p40 production (LPS stimulated PBMCs; LPS stimulated PBMCs): increased; also recorded: induced; effect on IL-12p70 production (LPS stimulated PBMCs; LPS stimulated PBMCs): increased; also recorded: induced; effect on IL-23 production (LPS stimulated PBMCs; LPS stimulated PBMCs): induced; also recorded: increased; effect on MCP-1 production (LPS stimulated PBMCs; LPS stimulated PBMCs): decreased; also recorded: reduced; effect on TNF-α production (LPS stimulated PBMCs; LPS stimulated PBMCs): induced; also recorded: increased; phase 2 clinical trial outcome ([1]; subjects with moderate to severe plaque psoriasis): positive results
